System: T1, SulA1
T1 construct: forward primer encodes MVSSSPA (translated here)
Experiment: GalNAc release by HPAEC-PAD, Michaelis-Menten nonlinear fit
Assay type: biochemical, Arthrobacter sp. MAT3885
Settings: pH 5.5, 40 °C, 30 min, 0-20 mM substrate; 100 mM acetate buffer; unit not printed beside the value, taken from the mM axis of Figure 9B

Km: 6.94 ± 0.053 mM
Structure (SMILES): CC(=O)N[C@H]1C(O)O[C@H](CO)[C@H](OS(=O)(=O)O)[C@@H]1O (stereo partly drawn) [GalNAc4S, N-Acetyl-D-galactosamine-4-sulfate]

Source: publication PMC10972148, “Cloning and Characterization of a Novel N-Acetyl-D-galactosamine-4-O-sulfate Sulfatase, SulA1, from a Marine Arthrobacter Strain” (Marine Drugs, 2024)
